Usually melting point stands for the temperature of the solid-liquid transition. `Cc1nc(-c2cn(CCc3ccc(F)cc3)nn2)sc1C(=O)NCc1ccccc1` gave a melting point of 181 to 182 °C. Compound `Cc1oc(-c2ccccc2)nc1CC=Cc1ccc(CCCC2OC(=O)NC2=O)cc1` (stereo not drawn) yielded a melting point of 136 to 137 °C. Compound `Nc1ccccc1Nc1ccc(C(c2ccc(Nc3ccccc3N)cc2)(C(F)(F)F)C(F)(F)F)cc1` came in with a melting point of 150 to 152 °C. The figure for `CC(C)=CCc1c(O)ccc(CCCc2ccc(O)cc2)c1O` is 115 to 116 °C; for `COCc1ccc(C2(O)CCN(CC(O)c3cc(C)c(O)cc3C)CC2)cc1` (stereo not drawn) it is 166 °C; for `Cc1ccc(CO[C@H]2CO[C@@H](c3ccccc3)OC2)cc1C` it is 79 to 80 °C.

For `COC(=O)c1ccc2nc(C)[nH]c2c1C(=O)OC`, the melting point was 97 to 103 °C. `CSCC1(c2onc(-c3ccc(O)cc3)c2-c2ccccc2)CC1`: the melting point is 176 to 177 °C. The figure for `CCCC(Cc1ccc(OCCNC(=O)c2ccc(-c3ccccn3)cc2)cc1)C(=O)O` (stereo not drawn) is 81 to 82.5 °C. The value for `Cc1cc(CCCCCOc2c(Cl)cc(C3=NCCO3)cc2Br)on1` was 41 to 42 °C; that for `O=C(O)c1c(Cl)ccc2cc(C(F)(F)F)cnc12` was 250 °C. The value for `COc1cccc(NC(=O)NC2N=C(c3ccccc3)c3ccc(C)cc3N(C)C2=O)c1` (stereo not drawn) was 184 to 188 °C; that for `CN1CCC(C2(O)c3ccccc3COc3cc(Cl)ccc32)CC1` (stereo not drawn) was 199 to 200 °C; that for `COc1cc2c3c(c1)c(CCN1CCN(c4cc(C)ccn4)CC1)c(C)n3CCC2` was 104 °C. The compound `CCCNC(=O)NC1Cc2ccc(C3=NNC(=O)CC3)cc2C1` (stereo not drawn) came in with a melting point of 214 to 216 °C. The value for `COc1ccc(C#N)c(C)n1` was 80 to 80.5 °C; that for `COC(=O)c1ccccc1S(=O)(=O)NC(=O)Nc1nc(F)cc(OC(F)(F)F)n1` was 157 to 161 °C; that for `CC(C)(C)c1ccc2c(Cl)c3ccccc3c(C=O)c2c1` was 126 to 129 °C.

`COc1ccc(C(=O)Nc2nc(-c3ccco3)c(-c3ccncc3)s2)cc1` returned a melting point of 235 to 245 °C. The figure for `COc1cc(OC2CCN(S(=O)(=O)CCNC3CC3)CC2)ccc1CC(=O)N1CCN(c2ccccc2C)CC1C(N)=O` (stereo not drawn) is 69 to 110 °C. For the compound `COc1ccc(Cn2nc(CN3CCN(c4ccccc4OC)CC3)c3cc(OC)c(OC)cc32)cc1OC`, the melting point is 149 to 150 °C. The value for `O=C(O)c1ccc2c(c1)S(=O)(=O)c1ccc(Cl)cc1C2=O` was 352 to 355 °C; that for `CCOC(=O)C(=Cc1ccccn1)C(=O)c1ccc(F)cc1` was 128 to 129 °C. `CC(C)(C)NS(=O)(=O)c1c(C(=O)O)sc2ccccc12` had a melting point of 180 °C.

Regarding `COc1cc2c(Cl)c(C#N)cnc2cc1OS(=O)(=O)C(F)(F)F`, the melting point lay within 112 to 113 °C.

As to `Cc1ncc(-c2ccccc2)c(C(=O)N(C)Cc2cc(C(F)(F)F)cc(C(F)(F)F)c2)n1`, the melting point was 149 to 152 °C. The value for `FCc1cccc(C#CCCn2cc(-c3ccc(F)cc3)nn2)n1` was 100 to 103 °C. The figure for `C=CCc1c(OC(C)=O)ccc2c(C)cc(=O)oc12` is 98.8 to 99.8 °C; for `COc1cc(CNC(=S)NC(COC(=O)C(C)(C)C)Cc2ccc(C(C)(C)C)cc2)ccc1OCCN` (stereo not drawn) it is 63 to 65 °C. The figure for `COC(=O)C[C@H](O)CC(=O)C=Cc1c(-c2ccc(F)cc2)c(-c2ccc(F)cc2)c(C(=O)NCc2cccc(OC)c2)n1C(C)C` is 104 to 116 °C; for `COc1ccc(-c2ccsc2)c2c1c(CCN(C)C)cn2C` it is 120 to 122 °C. Consider `CC(=O)O[C@H]1c2cc(F)ccc2Cc2ccccc2[C@H]1C[C@@H]1COC(C)(C)O1`, for which the melting point was in the range of 147 to 149 °C.

In turn, `CCOC(=O)Cc1ccc(-c2nc(CCl)c(C)o2)cc1` displayed a melting point of 87 to 88 °C.

With `CCCCCCCCCCCCCCOC(=O)CCC(=O)CCC(=O)OCC`, the melting point was 43 °C. The value for `CC(O)(CCF)c1ccc(-c2ccc(F)cc2)cc1` (stereo not drawn) was 90 to 92 °C.

Take `CCCCc1cn(Cc2ccc(-c3ccccc3C(=O)O)cc2)c2c(Br)cccc2c1=O`: the melting point worked out at 180 °C.

`COc1ccc(CCNCC(O)COc2cccc3nn(Cc4ccccc4)cc23)cc1OC` (stereo not drawn) had a melting point of 101 to 102 °C. On to `CCOP(=O)(/C=C/c1cn(-c2ccccc2)nc1OCc1ccc(OCc2sc(-c3ccccc3)nc2C)c(OC)c1)OCC`, for which the melting point is 113 to 114 °C. `CCCCOC(=O)CCC(C)(c1ccc(O)c(C(C)(C)C)c1)c1ccc(O)c(C(C)(C)C)c1` returned a melting point of 123 °C.

For the compound `COc1ccc(C=Cc2cc(OC)c(OC)c(OC)c2)cc1OC`, the melting point fell in the range of 150 to 152 °C. The value for `CCOC(=O)c1sc2ccc(OC)cc2c1OCC` was 42 to 43 °C. The figure for `O=c1[nH]c2ccccc2n1CCCN1CC=C(n2c(=O)[nH]c3ccccc32)CC1` is 207 °C. The value for `COc1cc(C)cc2ncc(Br)n12` was 105 to 106 °C; that for `CCn1c2ccccc2c2cc(NC(C)=O)ccc21` was 195 to 197 °C. For the compound `COc1cccc(OC2COc3ccc(O)cc3C2O)c1` (stereo not drawn), the melting point was in the range of 187 to 189 °C.

In the case of `Cc1oc(-c2ccc(C(F)(F)F)cc2)nc1CO`, the melting point lay within 98 to 99 °C.

In the case of `CC(C)(C)[Si](C)(C)Oc1ccc(NC(=O)CN2CCC(O)(Cc3ccc(Cl)cc3)CC2)cc1`, the melting point was 135 to 136 °C. The value for `CCOC(=O)CCc1ccc2cc(O)ccc2n1` was 126 to 128 °C. Compound `Cc1ccccc1-c1c2c(cc3ccc4c(c13)OCO4)C(=O)NC2` displayed a melting point of 252 to 255 °C.

`Cc1ccccc1C(=O)OCC1OC(N2CN(C)C(=O)NC2=O)CC1OC(=O)c1ccccc1C` (stereo not drawn) yielded a melting point of 184 to 185 °C.

`CCOC(=O)C(C)NC(=O)CN(C(=O)c1ccc(Cl)cc1)c1c(C)cccc1C` (stereo not drawn) returned a melting point of 91 to 92 °C.

Turning to `O=c1[nH]c2cccc3c2n1CCC(NCCO)C3O` (stereo not drawn), the melting point was 220 °C. The figure for `O=S1(=O)NC2CCCN2c2ccc(Oc3ccc(Cc4nnn[nH]4)cc3)cc21` (stereo not drawn) is 209 to 212 °C; for `CCCc1c(COc2ccc3c(=O)cc(C(=O)O)oc3c2CCC)ccc(C(C)=O)c1O` it is 195 to 205 °C.

In turn, `O=CNc1cc(F)ccc1F` gave a melting point of 112 to 114 °C. In turn, `Cn1c2c(c3ccccc31)CCN1C(=O)CCC21C` (stereo not drawn) returned a melting point of 132 to 134 °C. The figure for `O=C(NCCCCN1CCN(C(c2ccccc2)c2ccccc2)CC1)c1cnc2cccc(O)c2c1O` is 215 to 218 °C; for `COc1cc2c(=O)n(CCN(C)C)c3c(cnc4cccc(N)c43)c2cc1OC` it is 239 to 241 °C; for `CCOC(=O)C1=C(C)NC(C)=C(C(=O)OC)C1c1cc([N+](=O)[O-])ccc1Cl` (stereo not drawn) it is 163 to 164 °C. As to `COC(=O)C(O)c1ccccc1[N+](=O)[O-]` (stereo not drawn), the melting point was 69 to 71 °C.

As for `OCc1nccc2c1CCCC2`, the melting point is 81 to 82 °C. The value for `CCCCCC[C@H](C)Oc1ccc(-c2ccc(O)cc2)cc1` was 100 °C. Compound `CCCC(O)(CCC)c1ccc(Cl)c2nc3n(c12)CCCN3c1ccc(Cl)cc1C(F)(F)F` yielded a melting point of 200 to 202 °C. The value for `CN1CC(C(C#N)(c2ccccc2)c2ccccc2)C1` was 113 to 115 °C. The value for `Cc1cc(OCC(=O)Nc2cc(C(=O)O)ccc2Cl)ccc1C(C)C` was 174 to 175 °C; that for `CON=C(C)C(C)=NOc1ncccc1N(OC)C(=O)OC` was 86 to 88 °C; that for `CCOc1nc2cccc(C(Br)Br)c2c(=O)o1` was 98 to 99 °C. The value for `COc1cccc(CC(=O)O)c1OCCCc1cc(C(C)C)nn1Cc1ccc(Cl)cc1Cl` was 101 to 102 °C. `COc1ccc(Cc2nc3c(cnn3C(CCCc3ccccc3)C(C)O)c(=O)[nH]2)cc1OC` (stereo not drawn) came in with a melting point of 85 °C. `NC(=O)C1C2C=CC(C2)C1Nc1c(Cl)cnc2[nH]c(-c3ccc4c(c3)CCC3(CCNCC3)O4)nc12` (stereo not drawn) returned a melting point above 250 °C. The value for `COC(C)c1ccc(C(=O)O)cc1` (single isomer, unassigned; (+)) was 99 to 102 °C; that for `COc1cc2c(cc1OC)C1C(CO)CSC(C=N)N1CC2` (stereo not drawn) was 149 to 151 °C; that for `C=CCN(C1=NCCN1C)c1c(Cl)cccc1Cl` was 59 to 61 °C.

With `CC(C)[C@@H](CO)NS(=O)(=O)c1ccc(Br)cc1`, the melting point lay in the range of 89 to 94 °C. The figure for `Cc1nsc(CCCOc2c(C)cc(-c3noc(C(F)F)n3)cc2C)n1` is 62 to 64 °C. The figure for `CCCCC(OC(=O)c1ccccc1)P(=O)(O)OC(CCCCN)C(=O)N1CCCC1C(=O)O` (stereo not drawn) is 158 to 170 °C; for `N#CCC(=O)Nc1ccc(C(F)(F)F)cc1` it is 194 to 196 °C; for `CCC1C2C3Cc4ccc(OC)c5c4C2(CCN3C)C(O5)C(O)C1(C)C` (stereo not drawn) it is 104 to 108 °C. Turning to `CCOC(Cc1ccc(OCCN2CCSc3ccccc32)cc1)C(N)=O` (stereo not drawn), the melting point was 120 to 122 °C.

On to `CC(C)(C)c1cc(-c2nnc(NS(C)(=O)=O)s2)cc(C(C)(C)C)c1O`, for which the melting point was 293 to 294 °C. The value for `Cc1cc(C)c(C(O)P(=O)(c2ccccc2)c2ccccc2)c(C)c1` (stereo not drawn) was 152 to 153 °C; that for `COCc1nc2cccc(C(=O)O)c2n1Cc1ccc(-c2ccccc2-c2nnn[nH]2)cc1` was 272 to 274 °C; that for `CC(C)(C#N)c1cc(Cc2cccnc2)cc(C(C)(C)C#N)c1` was 82 to 84 °C. In the case of `OCCNCCOCCOCCNCCO`, the melting point lay in the range of 49 to 55 °C. The value for `CCC(CC)C(=O)Nc1ccc2ncn3c(=O)c(C(=O)O)cnc3c2c1` was 295 to 298 °C; that for `NS(=O)(=O)Oc1ccc(I)cc1` was 146 to 147 °C; that for `Cc1c(C)c2c(c(C)c1NC(=O)c1ccc(F)cc1)C(c1ccc(C(C)C)cc1)C(C)(C)O2` (single isomer, unassigned; (+)) was 251 to 253 °C. The figure for `COCn1c(C)nc2c(O)cc(C(=O)N(C)C)cc21` is 173 to 183 °C.

For the origin of these results see a melting point compilation (Tetko et al.; mined from patent text by program, amines drawn as free bases though some values may be those of a salt).
